Test results published in ChEMBL document CHEMBL1821607, “N-Arylalkyl-2-azaadamantanes as cage-expanded polycarbocyclic sigma (σ) receptor ligands” (Bioorg Med Chem Lett, 2011).

Legend:
[1] = Inhibition of GABAA receptor at 10 uM by NIMH PDSP
[2] = target: 5-hydroxytryptamine receptor 5A (Homo sapiens) (UniProt P47898); assay: Inhibition of 5-HT5A receptor at 10 uM by NIMH PDSP
[3] = target: 5-hydroxytryptamine receptor 1E (Homo sapiens) (UniProt P28566); assay: Inhibition of 5-HT1E receptor at 10 uM by NIMH PDSP
[4] = target: Histamine H4 receptor (Homo sapiens) (UniProt Q9H3N8); assay: Inhibition of H4 receptor at 10 uM by NIMH PDSP
[5] = target: T1, 5-hydroxytryptamine receptor 1A (Homo sapiens) (UniProt P08908); assay: Inhibition of 5-HT1A receptor at 10 uM by NIMH PDSP
T1 sequence (whole entry): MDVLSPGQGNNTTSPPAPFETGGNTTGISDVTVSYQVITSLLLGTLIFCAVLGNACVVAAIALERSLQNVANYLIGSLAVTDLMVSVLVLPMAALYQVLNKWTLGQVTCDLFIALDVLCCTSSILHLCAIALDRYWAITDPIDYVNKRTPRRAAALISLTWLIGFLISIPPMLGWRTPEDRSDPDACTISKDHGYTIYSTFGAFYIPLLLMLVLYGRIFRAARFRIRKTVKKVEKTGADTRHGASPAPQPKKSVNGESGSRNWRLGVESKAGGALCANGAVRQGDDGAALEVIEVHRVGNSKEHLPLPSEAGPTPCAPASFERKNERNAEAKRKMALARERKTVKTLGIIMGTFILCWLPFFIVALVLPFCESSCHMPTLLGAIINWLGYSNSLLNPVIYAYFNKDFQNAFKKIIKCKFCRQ

[6] = target: D(2) dopamine receptor (Homo sapiens) (UniProt P14416); assay: Inhibition of D2 dopamine receptor at 10 uM by NIMH PDSP
[7] = target: T2, 5-hydroxytryptamine receptor 3A (Homo sapiens) (UniProt P46098); assay: Inhibition of 5-HT3 receptor at 10 uM by NIMH PDSP
T2 sequence (whole entry): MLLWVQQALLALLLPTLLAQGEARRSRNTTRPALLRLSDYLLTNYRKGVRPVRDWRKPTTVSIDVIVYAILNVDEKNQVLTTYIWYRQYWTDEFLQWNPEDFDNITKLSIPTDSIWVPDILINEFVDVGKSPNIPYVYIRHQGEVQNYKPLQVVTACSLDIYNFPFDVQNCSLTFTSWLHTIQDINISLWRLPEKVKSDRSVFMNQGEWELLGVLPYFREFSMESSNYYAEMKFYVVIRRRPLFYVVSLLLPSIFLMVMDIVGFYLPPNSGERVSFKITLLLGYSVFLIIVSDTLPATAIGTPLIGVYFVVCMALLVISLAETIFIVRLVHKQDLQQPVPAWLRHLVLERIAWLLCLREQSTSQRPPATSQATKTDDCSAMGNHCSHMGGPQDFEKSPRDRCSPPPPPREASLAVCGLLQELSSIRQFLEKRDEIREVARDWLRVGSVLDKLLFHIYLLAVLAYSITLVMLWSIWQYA

[8] = target: Mu-type opioid receptor (Homo sapiens) (UniProt P35372); assay: Inhibition of mu opioid receptor at 10 uM by NIMH PDSP
[9] = target: T3, D(4) dopamine receptor (Homo sapiens) (UniProt P21917); assay: Inhibition of D4 dopamine receptor at 10 uM by NIMH PDSP
T3 sequence (whole entry): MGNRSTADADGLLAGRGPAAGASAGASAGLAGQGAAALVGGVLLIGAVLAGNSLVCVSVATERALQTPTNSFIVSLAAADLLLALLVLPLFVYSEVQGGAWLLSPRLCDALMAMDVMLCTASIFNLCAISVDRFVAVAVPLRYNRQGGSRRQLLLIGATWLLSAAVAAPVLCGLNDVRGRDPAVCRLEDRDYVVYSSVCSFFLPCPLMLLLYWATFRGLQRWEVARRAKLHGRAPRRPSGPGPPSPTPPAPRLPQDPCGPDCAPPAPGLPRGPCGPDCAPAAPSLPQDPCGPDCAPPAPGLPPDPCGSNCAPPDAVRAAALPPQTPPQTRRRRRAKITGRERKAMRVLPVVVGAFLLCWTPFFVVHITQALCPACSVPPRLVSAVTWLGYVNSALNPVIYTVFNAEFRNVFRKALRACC

[10] = target: 5-hydroxytryptamine receptor 7 (Homo sapiens) (UniProt P34969); assay: Inhibition of 5-HT7 receptor at 10 uM by NIMH PDSP
[11] = target: 5-hydroxytryptamine receptor 6 (Homo sapiens) (UniProt P50406); assay: Inhibition of 5-HT6 receptor at 10 uM by NIMH PDSP
[12] = target: T4, 5-hydroxytryptamine receptor 2C (Homo sapiens) (UniProt P28335); assay: Inhibition of 5-HT2C receptor at 10 uM by NIMH PDSP
T4 sequence (whole entry): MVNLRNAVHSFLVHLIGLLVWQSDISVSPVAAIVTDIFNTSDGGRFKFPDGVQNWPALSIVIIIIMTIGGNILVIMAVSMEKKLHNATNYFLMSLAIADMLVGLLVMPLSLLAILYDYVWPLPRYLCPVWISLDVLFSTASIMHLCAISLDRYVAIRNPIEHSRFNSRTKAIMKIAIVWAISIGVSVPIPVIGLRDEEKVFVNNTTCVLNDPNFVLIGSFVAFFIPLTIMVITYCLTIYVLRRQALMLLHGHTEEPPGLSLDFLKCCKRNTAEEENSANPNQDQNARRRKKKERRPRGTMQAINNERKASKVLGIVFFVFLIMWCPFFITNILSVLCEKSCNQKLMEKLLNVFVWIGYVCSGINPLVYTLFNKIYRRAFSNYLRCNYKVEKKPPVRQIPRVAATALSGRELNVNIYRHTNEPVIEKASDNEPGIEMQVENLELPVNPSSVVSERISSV

[13] = target: T5, Alpha-2B adrenergic receptor (Homo sapiens) (UniProt P18089); assay: Inhibition of alpha-2B adrenergic receptor at 10 uM by NIMH PDSP
T5 sequence (whole entry): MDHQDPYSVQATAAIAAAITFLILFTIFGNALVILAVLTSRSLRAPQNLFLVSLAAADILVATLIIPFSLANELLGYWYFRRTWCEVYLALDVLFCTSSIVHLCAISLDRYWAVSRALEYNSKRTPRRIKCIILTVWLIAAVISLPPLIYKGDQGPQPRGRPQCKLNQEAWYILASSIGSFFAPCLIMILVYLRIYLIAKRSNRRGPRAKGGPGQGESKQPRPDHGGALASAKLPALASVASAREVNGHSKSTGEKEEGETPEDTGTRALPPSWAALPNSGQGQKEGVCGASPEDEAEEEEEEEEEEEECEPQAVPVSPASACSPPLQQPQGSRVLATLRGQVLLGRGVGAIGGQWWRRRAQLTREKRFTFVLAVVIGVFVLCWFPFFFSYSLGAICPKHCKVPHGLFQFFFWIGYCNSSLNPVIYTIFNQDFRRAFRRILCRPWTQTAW

[14] = target: Sodium-dependent noradrenaline transporter (Homo sapiens, UniProt P23975); assay: Inhibition of NET transporter by NIMH PDSP
Sequence of Sodium-dependent noradrenaline transporter (P23975 whole entry): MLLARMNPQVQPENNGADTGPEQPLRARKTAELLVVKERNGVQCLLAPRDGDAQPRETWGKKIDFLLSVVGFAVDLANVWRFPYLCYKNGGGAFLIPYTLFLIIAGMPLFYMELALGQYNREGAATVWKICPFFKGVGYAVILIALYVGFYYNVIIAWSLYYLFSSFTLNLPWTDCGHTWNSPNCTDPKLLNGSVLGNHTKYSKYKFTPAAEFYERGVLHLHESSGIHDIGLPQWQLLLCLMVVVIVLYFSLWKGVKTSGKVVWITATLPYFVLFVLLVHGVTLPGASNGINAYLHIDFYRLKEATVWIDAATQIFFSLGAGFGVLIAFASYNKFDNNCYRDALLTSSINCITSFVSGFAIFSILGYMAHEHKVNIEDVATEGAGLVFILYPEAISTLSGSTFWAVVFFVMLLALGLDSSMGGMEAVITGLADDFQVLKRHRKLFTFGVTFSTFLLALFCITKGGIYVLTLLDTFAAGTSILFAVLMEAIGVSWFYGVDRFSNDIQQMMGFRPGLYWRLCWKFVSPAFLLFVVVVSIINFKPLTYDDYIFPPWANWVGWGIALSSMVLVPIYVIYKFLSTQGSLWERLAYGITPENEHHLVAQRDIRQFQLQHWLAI

Sequence of 5-hydroxytryptamine receptor 7 (Homo sapiens) (P34969 whole entry): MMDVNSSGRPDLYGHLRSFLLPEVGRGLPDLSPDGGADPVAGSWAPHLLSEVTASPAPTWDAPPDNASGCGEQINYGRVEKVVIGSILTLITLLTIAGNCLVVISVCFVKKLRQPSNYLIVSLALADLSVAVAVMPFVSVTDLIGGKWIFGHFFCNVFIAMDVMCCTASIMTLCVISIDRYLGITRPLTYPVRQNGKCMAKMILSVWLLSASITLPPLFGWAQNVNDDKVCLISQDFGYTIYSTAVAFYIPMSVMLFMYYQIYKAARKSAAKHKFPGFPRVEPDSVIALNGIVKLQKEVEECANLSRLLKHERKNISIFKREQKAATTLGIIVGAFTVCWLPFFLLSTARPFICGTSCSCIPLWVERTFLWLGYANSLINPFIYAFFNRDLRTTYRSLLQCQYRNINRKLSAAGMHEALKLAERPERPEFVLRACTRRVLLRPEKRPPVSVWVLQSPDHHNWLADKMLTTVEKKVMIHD
Sequence of 5-hydroxytryptamine receptor 6 (Homo sapiens) (P50406 whole entry): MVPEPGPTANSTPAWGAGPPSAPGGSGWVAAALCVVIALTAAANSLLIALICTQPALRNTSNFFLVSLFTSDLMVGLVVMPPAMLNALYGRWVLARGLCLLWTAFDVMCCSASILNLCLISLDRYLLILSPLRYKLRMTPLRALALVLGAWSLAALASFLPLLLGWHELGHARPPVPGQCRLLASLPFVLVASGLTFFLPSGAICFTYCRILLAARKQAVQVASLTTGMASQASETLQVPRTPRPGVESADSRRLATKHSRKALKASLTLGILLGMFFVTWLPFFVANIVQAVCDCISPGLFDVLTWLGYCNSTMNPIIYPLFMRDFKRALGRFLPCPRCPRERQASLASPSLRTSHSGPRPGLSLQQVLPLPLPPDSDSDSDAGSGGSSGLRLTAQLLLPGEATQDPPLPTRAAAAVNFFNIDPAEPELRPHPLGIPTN
Sequence of Histamine H4 receptor (Homo sapiens) (Q9H3N8 whole entry): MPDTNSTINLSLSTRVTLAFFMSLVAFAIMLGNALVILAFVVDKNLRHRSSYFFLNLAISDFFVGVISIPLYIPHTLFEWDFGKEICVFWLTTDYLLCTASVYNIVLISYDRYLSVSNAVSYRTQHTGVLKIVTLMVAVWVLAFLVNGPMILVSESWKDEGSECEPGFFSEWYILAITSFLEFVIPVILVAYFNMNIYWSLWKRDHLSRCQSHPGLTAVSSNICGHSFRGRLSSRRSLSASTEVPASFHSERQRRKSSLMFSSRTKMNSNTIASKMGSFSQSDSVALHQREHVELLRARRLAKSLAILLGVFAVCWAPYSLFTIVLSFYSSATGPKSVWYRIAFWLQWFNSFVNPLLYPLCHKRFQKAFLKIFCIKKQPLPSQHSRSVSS
Sequence of 5-hydroxytryptamine receptor 1E (Homo sapiens) (P28566 whole entry): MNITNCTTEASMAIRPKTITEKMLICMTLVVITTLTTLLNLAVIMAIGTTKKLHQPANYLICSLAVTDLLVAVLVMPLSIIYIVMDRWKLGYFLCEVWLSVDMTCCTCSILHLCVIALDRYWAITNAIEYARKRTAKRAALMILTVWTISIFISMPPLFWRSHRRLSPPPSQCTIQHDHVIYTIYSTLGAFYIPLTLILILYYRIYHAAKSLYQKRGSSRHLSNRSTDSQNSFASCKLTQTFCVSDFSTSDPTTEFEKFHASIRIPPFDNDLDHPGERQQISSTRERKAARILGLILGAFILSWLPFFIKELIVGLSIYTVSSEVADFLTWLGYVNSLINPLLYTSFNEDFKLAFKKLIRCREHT
Sequence of 5-hydroxytryptamine receptor 5A (Homo sapiens) (P47898 whole entry): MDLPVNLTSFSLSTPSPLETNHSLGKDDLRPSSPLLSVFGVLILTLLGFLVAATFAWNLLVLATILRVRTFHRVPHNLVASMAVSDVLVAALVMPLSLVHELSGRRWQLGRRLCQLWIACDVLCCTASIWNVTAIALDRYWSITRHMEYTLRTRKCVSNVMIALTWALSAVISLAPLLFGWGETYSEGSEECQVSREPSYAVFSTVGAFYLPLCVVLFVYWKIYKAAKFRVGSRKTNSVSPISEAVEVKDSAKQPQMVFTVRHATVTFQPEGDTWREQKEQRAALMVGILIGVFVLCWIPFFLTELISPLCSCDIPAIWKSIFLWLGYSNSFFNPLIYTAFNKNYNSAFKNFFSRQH
Sequence of Mu-type opioid receptor (Homo sapiens) (P35372 whole entry): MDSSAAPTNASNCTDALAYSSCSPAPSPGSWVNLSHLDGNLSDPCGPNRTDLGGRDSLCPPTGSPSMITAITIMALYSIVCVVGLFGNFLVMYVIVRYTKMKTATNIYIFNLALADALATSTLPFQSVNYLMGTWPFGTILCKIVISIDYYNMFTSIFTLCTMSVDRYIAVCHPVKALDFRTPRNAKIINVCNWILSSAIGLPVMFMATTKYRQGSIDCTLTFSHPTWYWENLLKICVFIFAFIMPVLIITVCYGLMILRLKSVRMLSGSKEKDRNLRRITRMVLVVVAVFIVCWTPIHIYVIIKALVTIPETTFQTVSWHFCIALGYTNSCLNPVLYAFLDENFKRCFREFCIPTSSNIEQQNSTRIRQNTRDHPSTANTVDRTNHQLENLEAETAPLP
Sequence of D(2) dopamine receptor (Homo sapiens) (P14416 whole entry): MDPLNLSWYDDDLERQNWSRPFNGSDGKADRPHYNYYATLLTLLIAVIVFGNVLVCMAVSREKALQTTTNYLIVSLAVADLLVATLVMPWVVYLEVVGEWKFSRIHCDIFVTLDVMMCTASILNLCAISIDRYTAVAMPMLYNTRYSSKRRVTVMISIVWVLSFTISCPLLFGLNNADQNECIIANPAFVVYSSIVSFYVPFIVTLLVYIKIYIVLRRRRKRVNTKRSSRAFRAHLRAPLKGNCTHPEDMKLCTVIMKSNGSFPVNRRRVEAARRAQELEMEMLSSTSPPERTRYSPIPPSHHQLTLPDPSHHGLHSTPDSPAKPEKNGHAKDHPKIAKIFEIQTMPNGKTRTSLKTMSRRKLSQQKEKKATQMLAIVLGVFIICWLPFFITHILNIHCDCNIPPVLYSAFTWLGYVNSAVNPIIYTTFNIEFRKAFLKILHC

| Compound | inhibition [1] [%] | inhibition [2] [%] | inhibition [3] [%] | inhibition [4] [%] | inhibition [5] [%] | inhibition [6] [%] | inhibition [7] [%] | inhibition [8] [%] | inhibition [9] [%] | inhibition [10] [%] | inhibition [11] [%] | inhibition [12] [%] | inhibition [13] [%] | Ki [14] [µM] |
| --- | --- | --- | --- | --- | --- | --- | --- | --- | --- | --- | --- | --- | --- | --- |
| OC12CC3CC(CC(C3)N1Cc1ccccc1)C2 (racemic) | < 50 | < 50 | < 50 | < 50 | < 50 | < 50 | < 50 | < 50 | < 50 | < 50 | < 50 | < 50 |  |  |
| c1ccc(CN2C3CC4CC(C3)CC2C4)cc1 | < 50 | < 50 | < 50 | < 50 | < 50 | < 50 | < 50 | < 50 | < 50 | < 50 | < 50 | < 50 | < 50 | > 10 |
| OC12CC3CC(CC(C3)N1Cc1cccc(F)c1)C2 (racemic) | < 50 | < 50 | < 50 | < 50 | < 50 | < 50 | < 50 | < 50 | < 50 | < 50 | < 50 | < 50 | < 50 | > 10 |
| Fc1cccc(CN2C3CC4CC(C3)CC2C4)c1 | < 50 | < 50 | < 50 | < 50 | < 50 | < 50 | < 50 | < 50 | < 50 | < 50 | < 50 | < 50 | < 50 | > 10 |
